Like-named read-outs stand apart in the source and are kept apart here.
How the values were obtained:
[1] = tested on: human liver cancer (HEPG2); experiment: In vitro cytotoxicity against HEPG2 cells; type: cell-based
Protocol: (§1) The heterocyclic compounds, prepared in this study, were evaluated according to standard protocols for their in vitro cytotoxicity against six human cancer cell lines including cells derived from human gastric cancer (NUGC), human colon cancer (DLD1), human liver cancer (HA22T and HEPG2), nasopharyngeal carcinoma (HONE1), human breast cancer (MCF) and normal fibroblast cells (WI38). For comparison purposes, CHS 828, a pyridyl cyanoguanidine, was used as a standard antitumor drug (Figure 2). […] All the synthesized compounds were tested for their cytotoxicity against normal fibroblast cells.
(§2) Fetal bovine serum (FBS) and L-glutamine, were purchased from Gibco Invitrogen Co. (Scotland, UK). RPMI-1640 medium was purchased from Cambrex (East Rutherford, NJ, USA). Dimethyl sulfoxide (DMSO), CHS 828, penicillin, streptomycin and sulforhodamine B (SRB) were purchased from Sigma Chemical Co. (Saint Louis, MO, USA).
(§3) Cell cultures were obtained from the European Collection of Cell Cultures (ECACC, Salisbury, UK) and human gastric cancer (NUGC), human colon cancer (DLD1), human liver cancer (HA22T and HEPG2), human breast cancer (MCF), nasopharyngeal carcinoma (HONE1) and normal fibroblast cells (WI38) were kindly provided by the National Cancer Institute (NCI, Cairo, Egypt). They were grown as a monolayer and routinely maintained in RPMI-1640 medium supplemented with 5% heat inactivated FBS, 2 mM glutamine and antibiotics (penicillin 100 U/mL, streptomycin 100 µg/mL) at 37 °C in a humidified atmosphere containing 5% CO2. Exponentially growing cells were obtained by plating 1.5 × 10^5 cells/mL for the six human cancer cell lines followed by 24 h of incubation. The effect of the vehicle solvent (DMSO) on the growth of these cell lines was evaluated in all the experiments by exposing untreated control cells to the maximum concentration (0.5%) of DMSO used in each assay.

[2] = tested on: nasopharyngeal carcinoma (HONE1); experiment: In vitro cytotoxicity against HONE1 cells; type: cell-based; details: Homo sapiens
Protocol: as §1, §2, §3

[3] = tested on: human gastric cancer (NUGC); experiment: In vitro cytotoxicity against NUGC cells; type: cell-based; details: read-out: Cytotoxicity (IC50 in nM) NUGC
Protocol: as §1, §2, §3

[4] = tested on: human colon cancer (DLD1); experiment: In vitro cytotoxicity against DLD1 cells; type: cell-based
Protocol: as §1, §2, §3

[5] = tested on: human breast cancer (MCF); experiment: In vitro cytotoxicity against MCF cells; type: cell-based; details: read-out: Cytotoxicity (IC50 in nM) MCF
Protocol: as §1, §2, §3

[6] = tested on: human liver cancer (HA22T); experiment: In vitro cytotoxicity against HA22T cells; type: cell-based; details: read-out: Cytotoxicity (IC50 in nM) HA22T
Protocol: as §1, §2, §3

[7] = In vitro cytotoxicity against normal fibroblast cells WI38; type: cell-based; details: human, concentration producing 50% reduction in cell growth
Protocol: as §1, §2, §3

[8] = HEPG2, liver cancer, concentration producing 50% reduction in cell growth, read-out: Cytotoxicity (IC50 in nM) HEPG2
[9] = HONE1, nasopharyngeal carcinoma, concentration producing 50% reduction in cell growth, read-out: Cytotoxicity (IC50 in nM) HONE1
[10] = gastric cancer, concentration producing 50% reduction in cell growth
[11] = DLD-1, DLDI, colon cancer, concentration producing 50% reduction in cell growth, read-out: Cytotoxicity (IC50 in nM) DLDI
[12] = MCF, breast cancer, concentration producing 50% reduction in cell growth
[13] = liver cancer, concentration producing 50% reduction in cell growth

SMILES | IC50 [1, 8] | IC50 [2, 9] | IC50 [3, 10] | IC50 [4, 11] | IC50 [5, 12] | IC50 [6, 13] | melting point | IC50 [7] | IC50 ([1]; HepG2, read-out: Cytotoxicity (IC50 in nM) HEPG2) | IC50 ([2]; HONE1, read-out: Cytotoxicity (IC50 in nM) HONE1) | IC50 [3] | IC50 ([4]; DLD-1, read-out: Cytotoxicity (IC50 in nM) DLDI) | IC50 [5] | IC50 [6]
CCOC(=O)c1c(N)sc(Br)c1-c1cc2ccccc2oc1=O [Compound 4b, Ethyl 2-amino-5-bromo-4-(2-oxo-2H-chromen-3-yl)thiophene-3-carboxylate] | 2020 nM | 1210 nM | 84 nM | 167 nM | 1140 nM | 219 nM | 177 to 179 °C |  |  |  |  |  |  | 
N#CC1=C(N)OC(c2cc3ccccc3oc2=O)=C(Br)C1c1ccco1 (stereo not shown) [Compound 6d, 2-Amino-5-bromo-4-(furan-2-yl)-6-(2-oxo-2H-chromen-3-yl)-4H-pyran-3-carbonitrile] | 360 nM | 279 nM | 29 nM | 98 nM | 931 nM | 2110 nM | 148 to 150 °C |  |  |  |  |  |  | 
Nc1cc(-c2cc3ccccc3oc2=O)nn1-c1ccccc1 [Compound 9b, 3-(5-Amino-1-phenyl-1H-pyrazol-3-yl)-2H-chromen-2-one] | 415 nM | 4270 nM | 1120 nM | 2240 nM | 1650 nM | 1580 nM | 158 to 160 °C |  |  |  |  |  |  | 
Cc1ccc(-n2cc(-c3cc4ccccc4oc3=O)sc2=Nc2ccccc2)cc1 [Compound 5b, 3-(2-(Phenylimino)-3-(p-tolyl)-2,3-dihydrothiazol-5-yl)-2H-chromen-2-one] | 1300 nM | 2180 nM | 2210 nM | 1070 nM | 1230 nM | 1290 nM | 99 to 101 °C | 489 nM |  |  |  |  |  | 
COc1ccc(C2C(Br)=C(c3cc4ccccc4oc3=O)OC(N)=C2C#N)cc1 (stereo not shown) [Compound 6b, 2-Amino-5-bromo-4-(4-methoxyphenyl)-6-(2-oxo-2H-chromen-3-yl)-4H-pyran-3-carbonitrile] | 169 nM | 2850 nM | 3320 nM | 2670 nM | 2850 nM | 2260 nM | 193 to 195 °C | 280 nM |  |  |  |  |  | 
N#CC1=C(N)OC(c2cc3ccccc3oc2=O)=C(Br)C1c1ccccc1 (stereo not shown) [Compound 6a, 2-Amino-5-bromo-6-(2-oxo-2H-chromen-3-yl)-4-phenyl-4H-pyran-3-carbonitrile] | 59 nM | 1180 nM | 1090 nM | 303 nM | 2180 nM | 1240 nM | 140 to 142 °C |  |  |  |  |  |  | 
N#CC(C#N)=C(CO)c1cc2ccccc2oc1=O [Compound 3, 2-(2-Hydroxy-1-(2-oxo-2H-chromen-3-yl)ethylidene)malononitrile] | 1230 nM | 699 nM | 1160 nM | 1280 nM | 821 nM | 1650 nM | 162 to 164 °C | 910 nM |  |  |  |  |  | 
N#CC1=C(N)OC(c2cc3ccccc3oc2=O)=C(C#N)C1c1ccc(Cl)cc1 (stereo not shown) [Compound 10c, 2-Amino-4-(4-chlorophenyl)-6-(2-oxo-2H-chromen-3-yl)-4H-pyran-3,5-dicarbonitrile] | 399 nM | 89 nM | 312 nM | 193 nM | 584 nM | 4170 nM | 178 to 180 °C |  |  |  |  |  |  | 
N#CC1=C(N)NC(c2cc3ccccc3oc2=O)=C(C#N)C1c1ccccc1 (stereo not shown) [Compound 11a, 2-Amino-6-(2-oxo-2H-chromen-3-yl)-4-phenyl-1,4-dihydropyridine-3,5-dicarbonitrile] | 3350 nM | 2320 nM | 680 nM | 222 nM | 4940 nM | 314 nM | 133 to 135 °C | 128 nM |  |  |  |  |  | 
COc1ccc(C2C(C#N)=C(N)OC(c3cc4ccccc4oc3=O)=C2C#N)cc1 (stereo not shown) [Compound 10b, 2-Amino-4-(4-methoxyphenyl)-6-(2-oxo-2H-chromen-3-yl)-4H-pyran-3,5-dicarbonitrile] | 1320 nM | 2180 nM | 1340 nM | 2280 nM | 2120 nM | 89 nM | 113 to 115 °C |  |  |  |  |  |  | 
N#Cc1c(N)sc(Br)c1-c1cc2ccccc2oc1=O [Compound 4a, 2-Amino-5-bromo-4-(2-oxo-2H-chromen-3-yl)thiophene-3-carbonitrile] | 221 nM | 228 nM | 32 nM | 50 nM | 2060 nM | 27 nM | 180 to 182 °C | 780 nM |  |  |  |  |  | 
O=C(C(Br)=NNc1ccccc1)c1cc2ccccc2oc1=O [Compound 2, 2-oxo-2-(2-oxo-2H-chromen-3-yl)-N'-phenylacetohydrazonoylbromide] | 174 nM | 1480 nM | 48 nM | 60 nM | 288 nM | 1120 nM | 88 to 90 °C |  |  |  |  |  |  | 
N#CC1=C(N)NC(c2cc3ccccc3oc2=O)=C(C#N)C1c1ccc(Cl)cc1 (stereo not shown) [Compound 11c, 2-Amino-4-(4-chlorophenyl)-6-(2-oxo-2H-chromen-3-yl)-1,4-dihydropyridine-3,5-dicarbonitrile] | 424 nM | 1770 nM | 1280 nM | 483 nM | 839 nM | 2060 nM | 197 to 199 °C |  |  |  |  |  |  | 
COc1ccc(-n2cc(-c3cc4ccccc4oc3=O)sc2=Nc2ccccc2)cc1 [Compound 5c, 3-(3-(4-Methoxyphenyl)-2-(phenylimino)-2,3-dihydrothiazol-5-yl)-2H-chromen-2-one] | 2120 nM | 670 nM | 1620 nM | 396 nM | 1180 nM | 274 nM | 103 to 105 °C | 490 nM |  |  |  |  |  | 
N#CN=C(NCCCCCCOc1ccc(Cl)cc1)Nc1ccncc1 [CHS 828, reference compound] |  |  |  |  |  |  |  |  | 1240 nM | 15 nM | 25 nM | 2320 nM | 18 nM | 2070 nM
N#CC1=C(N)NC(c2cc3ccccc3oc2=O)=C(Br)C1c1ccc(Cl)cc1 (stereo not shown) [Compound 7c, 2-Amino-5-bromo-4-(4-chlorophenyl)-6-(2-oxo-2H-chromen-3-yl)-1,4-dihydropyridine-3-carbonitrile] | 416 nM | 221 nM | 98 nM | 32 nM | 43 nM | 128 nM | 206 to 208 °C |  |  |  |  |  |  | 
COc1ccc(C2C(C#N)=C(N)NC(c3cc4ccccc4oc3=O)=C2C#N)cc1 (stereo not shown) [Compound 11b, 2-Amino-4-(4-methoxyphenyl)-6-(2-oxo-2H-chromen-3-yl)-1,4-dihydropyridine-3,5-dicarbonitrile] | 215 nM | 1670 nM | 124 nM | 58 nM | 39 nM | 3060 nM | 99 to 101 °C |  |  |  |  |  |  | 
N#CC1=C(N)NC(c2cc3ccccc3oc2=O)=C(Br)C1c1ccco1 (stereo not shown) [Compound 7d, 2-Amino-5-bromo-4-(furan-2-yl)-6-(2-oxo-2H-chromen-3-yl)-1,4-dihydropyridine-3-carbonitrile] | 2730 nM | 1190 nM | 682 nM | 163 nM | 1130 nM | 52 nM | 205 to 207 °C |  |  |  |  |  |  | 
N#CC1=C(N)OC(c2cc3ccccc3oc2=O)=C(C#N)C1c1ccco1 (stereo not shown) [Compound 10d, 2-Amino-4-(furan-2-yl)-6-(2-oxo-2H-chromen-3-yl)-4H-pyran-3,5-dicarbonitrile] | 3320 nM | 220 nM | 47 nM | 68 nM | 2250 nM | 102 nM | 133 to 135 °C |  |  |  |  |  |  | 
Nc1cc(-c2cc3ccccc3oc2=O)n[nH]1 [Compound 9a, 3-(5-Amino-1H-pyrazol-3-yl)-2H-chromen-2-one] | 359 nM | 442 nM | 3470 nM | 48 nM | 1290 nM | 2170 nM | 218 to 220 °C |  |  |  |  |  |  | 

Reference: paper PMC6272230, “Uses of 3-(2-Bromoacetyl)-2H-chromen-2-one in the Synthesis of Heterocyclic Compounds Incorporating Coumarin: Synthesis, Characterization and Cytotoxicity” (Molecules, 2015)
